These results are taken from US6869957B1, “Non-peptide tachykinin receptor antagonists” (Eli Lilly and Company, priority 1993, dated 2005).

What is called pIC50 is −log10 of the IC50, conventionally taken in molar units.

pIC50: −log10 of the molar value.

One assay deals with T1, NK-1 receptor (Homo sapiens, UniProt P25103).
T1 construct: endogenous in cells; host or cells: IM9 cells (human cell line), whole cells
The assay can be described thus: NK-1 Receptor Binding Assay (125I-labeled substance P, IM9 cells). Particulars: for pIC50: inhibits fifty percent of binding of 125I-substance P to IM9 cells. A digest of the protocol: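 Radioligand binding on human IM9 cells, ended by filtration over glass fiber filters presoaked in 0.1% polyethylenimine. Specific binding of labeled substance P defined with 20 nM unlabeled ligand.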

A further assay deals with T2, human NK-2 receptor (Homo sapiens, UniProt P21452).
T2 construct: expressed in transfected cells; host or cells: CHO-hNK-2R cells (CHO-derived), membrane preparation
T2 sequence (P21452 1-398): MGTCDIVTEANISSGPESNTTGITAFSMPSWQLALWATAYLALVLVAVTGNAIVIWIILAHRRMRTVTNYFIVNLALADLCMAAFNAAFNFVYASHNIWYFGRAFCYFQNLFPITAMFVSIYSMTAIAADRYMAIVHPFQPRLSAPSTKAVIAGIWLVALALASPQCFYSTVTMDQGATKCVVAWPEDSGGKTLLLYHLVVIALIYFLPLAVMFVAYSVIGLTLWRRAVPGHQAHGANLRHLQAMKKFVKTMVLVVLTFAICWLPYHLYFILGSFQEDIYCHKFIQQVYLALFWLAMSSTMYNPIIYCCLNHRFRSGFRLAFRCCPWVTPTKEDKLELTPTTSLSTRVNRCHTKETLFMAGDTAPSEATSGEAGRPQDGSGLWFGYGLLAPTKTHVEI
The assay can be described thus: NK-2 Receptor Binding Assay ([125I]iodohistidyl-neurokinin A, CHO-hNK-2R membranes). To be noted: inhibits fifty percent of binding of [125I]iodohistidyl-neurokinin A to CHO-hNK-2R membranes. A digest of the protocol:
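Membranes from CHO cells stably expressing human NK-2 receptor (~400,000/cell), 40 μg protein per sample, in 50 mM Tris pH 7.4 with 3 mM MnCl2, 0.02% BSA, 4 μg/ml chymostatin. Displacement of 20 pM [125I]iodohistidyl-neurokinin A, 1 hr at room temperature; GF/B filtration, gamma counting. Non-specific binding defined with 1 μM eledoisin.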

T1 sequence (P25103 whole entry): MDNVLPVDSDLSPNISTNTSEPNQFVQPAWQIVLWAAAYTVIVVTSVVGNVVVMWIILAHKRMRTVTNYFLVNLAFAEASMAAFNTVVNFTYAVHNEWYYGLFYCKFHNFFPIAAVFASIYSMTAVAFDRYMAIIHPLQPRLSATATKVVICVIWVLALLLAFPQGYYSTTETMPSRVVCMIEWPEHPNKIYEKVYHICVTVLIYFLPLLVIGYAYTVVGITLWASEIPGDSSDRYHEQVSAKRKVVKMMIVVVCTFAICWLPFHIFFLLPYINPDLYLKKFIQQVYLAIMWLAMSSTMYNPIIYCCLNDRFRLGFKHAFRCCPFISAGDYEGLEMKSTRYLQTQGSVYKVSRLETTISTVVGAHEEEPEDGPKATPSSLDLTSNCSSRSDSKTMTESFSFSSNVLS

Regarding `COc1ccccc1CN(CC(Cc1c[nH]c2ccccc12)NC(=O)CNCc1ccncc1)C(C)=O` (stereo not shown) [Example 83], the pIC50 at NK-1 receptor was 8.08; at human NK-2 receptor, 5.28.
`COc1ccccc1CNCC(Cc1c[nH]c2ccccc12)NC(=O)CN1CCC(N2CCCCC2)CC1` (stereo not shown) [Example 45]: the figures for the pIC50 on NK-1 receptor and on human NK-2 receptor were 7.19 and 5.28, respectively.
For the molecule `CC(=O)N(CCc1ccccc1)CC(Cc1c[nH]c2ccccc12)NC(c1ccccc1)(c1ccccc1)c1ccccc1` (stereo not shown) [Example 168], the “NK-1 percent inhibition of binding” value at NK-1 receptor (@ 5 μM) is recorded as 13% @. The molecule further had a pIC50 at human NK-2 receptor of under 4.00.
For `COc1ccccc1CNCC(Cc1ccccc1)NC(c1ccccc1)(c1ccccc1)c1ccccc1` (stereo not shown) [Example 174], in that order: 0% @ 5 μM and 5.19.
For the molecule `CCC(=O)N(Cc1ccccc1OC)CC(Cc1c[nH]c2ccccc12)NC(=O)CN1CCN(c2ccccc2)CC1` (stereo not shown) [Example 26], the pIC50 on NK-1 receptor was 9.12; on human NK-2 receptor it was 6.19.
On to `COc1ccccc1CN(CC(Cc1c[nH]c2ccccc12)NC(C)=O)C(=O)CN1CCN(c2ccccc2)CC1` (stereo not shown) [Example 107], for which the “NK-1 percent inhibition of binding” value on NK-1 receptor (@ 1 μM) came to 74% @. This molecule also had a pIC50 on human NK-2 receptor of 6.38.
Consider `COc1ccccc1CN(CC(Cc1c[nH]c2ccccc12)NC(=O)CN1CCN(c2ccccc2)CC1)C(=O)c1ccccc1` (stereo not shown) [Example 27], for which the pIC50 on NK-1 receptor is 8.80; at human NK-2 receptor it was 6.15.
`CN(CC(Cc1c[nH]c2ccccc12)NC(=O)CN1CCC(N2CCCCC2)CC1)C(=O)c1ccccc1` (stereo not shown) [Example 155]: the “NK-1 percent inhibition of binding” value on NK-1 receptor (@ 5 μM) is given as 63% @. Besides, the pIC50 on human NK-2 receptor was 4.91.
As for `COc1ccccc1CN(CC(Cc1c[nH]c2ccccc12)NC(=O)CN1CCN(C)CC1)C(C)=O` (stereo not shown) [Example 71], the figures for the pIC50 at NK-1 receptor and at human NK-2 receptor were 8.12 and 5.05, respectively.
`COc1ccccc1CN(CC(Cc1c[nH]c2ccccc12)NC(=O)CN1CCN(c2ncccn2)CC1)C(C)=O` (stereo not shown) [Example 78]: the pIC50 on NK-1 receptor is 8.00; on human NK-2 receptor it was 5.68.
As for `CC(=O)N(CC(Cc1c[nH]c2ccccc12)NC(=O)CN1CCN(c2ccccc2)CC1)c1ccccc1` (stereo not shown) [Example 42], the “NK-1 percent inhibition of binding” value at NK-1 receptor (@ 1 μM) is 16% @. Further, the pIC50 on human NK-2 receptor was 5.92.
Take `COc1ccccc1CN(CC(Cc1c[nH]c2ccccc12)NC(=O)CN1CCOCC1)C(C)=O` (stereo not shown) [Example 62]: the results for the negative-log IC50 (pIC50) on NK-1 receptor and at human NK-2 receptor were 7.37 and 5.23, respectively.
Take `CC(=O)N(CC(Cc1c[nH]c2ccccc12)NC(c1ccccc1)(c1ccccc1)c1ccccc1)c1ccccc1` (stereo not shown) [Example 167]: at NK-1 receptor (@ 5 μM), the “NK-1 percent inhibition of binding” value turned out to be 0% @ 5 μM. This molecule also showed a pIC50 at human NK-2 receptor of 4.68.
Turning to `COc1ccccc1CN(CC(Cc1c[nH]c2ccccc12)NC(=O)CN1CCN(c2ccccc2)CC1)C(=O)CN(C)C` (stereo not shown) [Example 35], the pIC50 was 9.05 on NK-1 receptor and 6.22 at human NK-2 receptor.
As to `COc1ccccc1CN(CC(Cc1c[nH]c2ccccc12)NC(=O)c1ccccc1)C(C)=O` (stereo not shown) [Example 88], the figures for the pIC50 at NK-1 receptor and on human NK-2 receptor were 6.92 and 5.25, respectively.
With `COc1ccccc1CN(CC(Cc1c[nH]c2ccccc12)NC(=O)CN1CCN(c2ccccc2)CC1)C(=O)CN` (stereo not shown) [Example 34], the negative logarithm of the IC50 (pIC50) on NK-1 receptor is 8.21; on human NK-2 receptor, 6.23.
Turning to `COc1ccccc1CN(CC(Cc1c[nH]c2ccccc12)NC(=O)CN1CCC(N(C)C)CC1)C(C)=O` (stereo not shown) [Example 66], the pIC50 at NK-1 receptor was 8.34; on human NK-2 receptor, 5.14.
Consider `CC(=O)N(CC(Cc1c[nH]c2ccccc12)NC(=O)CN1CCC(N2CCCCC2)CC1)c1ccccc1` (stereo not shown) [Example 53], for which, on NK-1 receptor (@ 5 μM), the “NK-1 percent inhibition of binding” value is listed as 58% @. Also, the pIC50 at human NK-2 receptor is 5.28.
As for `CC(=O)N(Cc1ccccc1[N+](=O)[O-])CC(Cc1c[nH]c2ccccc12)NC(=O)CN1CCN(c2ccccc2)CC1` (stereo not shown) [Example 16], the pIC50 is 8.38 at NK-1 receptor and 5.92 on human NK-2 receptor.
Turning to `COc1ccccc1CN(CC(Cc1c[nH]c2ccccc12)NC(=O)CN1CCC(NC(C)=O)(c2ccccc2)CC1)C(C)=O` (stereo not shown) [Example 68], the pIC50 is 9.39 on NK-1 receptor and 5.62 at human NK-2 receptor.
